The structures appear in SMILES notation.

This note sets out measurements from ChEMBL document CHEMBL4373636, “Synthesis of endolides A and B: naturally occurring N-methylated cyclic tetrapeptides” (Medchemcomm, 2019).

The target in assay [1] is Vasopressin V1a receptor (Homo sapiens, UniProt P37288). Put plainly: Binding affinity to vasopressin 1A receptor (unknown origin).
The target of assay [2] is 5-hydroxytryptamine receptor 2B (Homo sapiens, UniProt P41595). Put plainly: Binding affinity to 5HT2b (unknown origin).
Chain of 5-hydroxytryptamine receptor 2B (P41595 whole entry): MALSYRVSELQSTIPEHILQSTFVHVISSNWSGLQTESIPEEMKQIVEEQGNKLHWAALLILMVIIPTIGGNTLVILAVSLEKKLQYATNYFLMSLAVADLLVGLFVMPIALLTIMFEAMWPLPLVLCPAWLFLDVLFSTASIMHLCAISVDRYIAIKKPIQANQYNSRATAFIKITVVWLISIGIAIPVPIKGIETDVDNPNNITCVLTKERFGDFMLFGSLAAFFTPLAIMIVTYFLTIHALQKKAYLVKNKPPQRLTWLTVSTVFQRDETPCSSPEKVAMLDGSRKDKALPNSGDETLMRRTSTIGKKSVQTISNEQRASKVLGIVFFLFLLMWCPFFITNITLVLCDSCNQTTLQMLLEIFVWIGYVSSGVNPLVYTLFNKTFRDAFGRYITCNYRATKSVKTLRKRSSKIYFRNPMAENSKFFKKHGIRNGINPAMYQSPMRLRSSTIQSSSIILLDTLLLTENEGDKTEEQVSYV

Chain of Vasopressin V1a receptor (P37288 whole entry): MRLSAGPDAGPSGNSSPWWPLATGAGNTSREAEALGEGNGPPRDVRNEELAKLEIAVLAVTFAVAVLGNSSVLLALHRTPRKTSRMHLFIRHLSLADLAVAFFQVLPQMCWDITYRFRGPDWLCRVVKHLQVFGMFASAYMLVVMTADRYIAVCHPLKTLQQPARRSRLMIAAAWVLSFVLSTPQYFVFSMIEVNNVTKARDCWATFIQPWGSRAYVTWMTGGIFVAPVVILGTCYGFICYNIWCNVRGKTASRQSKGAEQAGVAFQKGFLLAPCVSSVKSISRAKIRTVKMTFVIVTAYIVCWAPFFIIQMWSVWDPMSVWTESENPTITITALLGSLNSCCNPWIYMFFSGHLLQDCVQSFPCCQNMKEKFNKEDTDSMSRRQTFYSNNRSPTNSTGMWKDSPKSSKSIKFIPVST

By Ki is commonly meant a measure of affinity in units of concentration, obtained from inhibition or displacement. A low value points to higher affinity. In the case of `CC(C)C[C@@H]1NC(=O)[C@H](Cc2ccoc2)N(C)C(=O)[C@H](C(C)C)NC(=O)[C@H](Cc2ccoc2)N(C)C1=O`, in assay [1], the Ki worked out at 7.04 µM.

`CC(C)[C@@H]1NC(=O)[C@H](Cc2ccoc2)N(C)C(=O)[C@H](Cc2ccoc2)NC(=O)[C@H](Cc2ccoc2)N(C)C1=O` returned a Ki in assay [2] of 0.77 µM.
